Reference: patent US12617835B2, “Chimeric autoantibody receptor (CAAR) that binds autoantibodies targeting the central nervous system in neurological autoimmune disease” (Deutsches Zentrum für Neurodegenerative Erkrankungen e. V. …, priority 2019, dated 2026)

Key:
[1] = test system: K562 cells expressing NR1-reactive antibodies on their surface; assay: Interferon-γ release on co-culture with K562 cells expressing surface NR1-reactive antibodies; type: cell-based; conditions: 50,000 T-cells co-cultured 1:1 with K562 cells, 48 hours
Method: 50,000 CAAR T-cells were co-cultured 1:1 with K562 cells expressing NR1-reactive or control antibodies on their surface for 48 hours.

[2] = test system: K562 cells expressing surface NR1-reactive antibodies; assay: Cell lysis of K562 target cells (7-AAD, flow cytometry); type: cell-based; conditions: E:T ratios 30:1 to 1:1, 4 hours
Method: For quantification of cell killing, target cells were incubated with CAAR T-cells at different Effector: Target (E:T) ratios ranging from 30:1 to 1:1 for 4 hours. Dead cells were stained by 7-AAD and analyzed by flow cytometry.
Target K562 cells were incubated with CAAR T-cells at different Effector:Target (E:T) ratios ranging from 30:1 to 1:1.

[3] = test system: Nalm6 cells with surface-presentation of NR1 autoantibody #003-102; assay: In vivo bioluminescence imaging of Nalm6 burden in mice; conditions: bioluminescence on day 9 (4 days post-treatment); preliminary data
Method: Nalm6 cells with surface-presentation of NR1 autoantibody and expressing a Luciferase enzyme (e.g. firefly-Luciferase) tagged with a fluorescent protein (e.g. GFP), are injected on day 1 into mice. On day 5, therapeutic CAAR-T cells expressing a CAAR of the present invention or control T cells without CAAR expression are injected. Bioluminescence imaging is conducted regularly, for example at time points 1, 5, 8, 12, 15, 19 and 22 days, to assess therapeutic effect against the Nalm6 cells. […]
In order to show therapeutic efficacy in an animal model in vivo, Nalm6 cells with surface-presentation of NR1 autoantibody #003-102 or #008-218 and expressing the Luciferase enzyme firefly-Luciferase (ffluc) tagged with a fluorescent protein (GFP, green fluorescent protein), were injected on day 1 into 16 mice. […] As a read-out of the assay, animal survival, target cell reduction (via in vivo bioluminescence measurements) and serum antibody levels are determined. […]
The potential readouts for the assay relate to bioluminescence imaging quantification (for the detection of in vivo killing), quantification of anti-NR1 serum levels by ELISA (for the detection of reduction of circulating antibodies), and postmortem analysis of treated animals (in order to determine off-target toxicity). […]

[4] = test system: Nalm6 target cells expressing NR1-reactive antibody #003-102; assay: Luciferase-assay of specific lysis of Nalm6 target cells, with or without Dasatinib; type: cell-based
Method: For quantification of cell killing, Nalm6 target cells expressing NR1-reactive antibody #003-102 were incubated with CAAR T-cells at different Effector:Target (E:T) ratios ranging from 1:2 to 8:1 for 18 hours. Percentage of specific lysis was determined by reduction of bioluminescence in a Luciferase-assay.
Results are depicted in FIG. 10.

Substance: ATD-S1-S2-CAAR: T cells transduced with CAAR: CD8 leader/NMDAR ATD-S1-Linker1-S2/Linker2/CD8a TM/CD137 co-stim/CD3z signaling
- release of interferon-γ [1]: massively released
- killing of K562 cells expressing surface NR1-reactive antibodies [2]: dose-dependent killing
- animals with drastic reduction of Nalm6 burden [3]: 5/6
- inactivation of CAAR T cells by Dasatinib ([4]; Dasatinib (safety strategy)): temporarily halted
- killing of Nalm6 target cells ([4]; E:T ratios 1:2 to 8:1, 18 hours): dose-dependent killing
